IC50 data for 23 compounds are collected here from US9006426B2, “Squaric acid derivatives as inhibitors of the nicotinamide” (Topotarget A/S, priority 2008, dated 2015).

Where a name gives a salt, the structure may show the parent alone.

The test has as its system A2780 cells. Nature of the test: In vitro cell proliferation assay (WST-1 assay). The format is cell-based. The note with it: Homo sapiens, total incubation time 72 h, WST-1 reagent. The protocol:
In Vitro Cell Proliferation Assay (WST-1 Assay)
A2780 cells were seeded in 96-well plates at 3×10^3 cells/well in 100 μL of culture medium, 8 wells were left empty for media only controls.
After 24 h the compound titrations were performed, in a separate dilution plate, by serially diluting the compounds of general formula (I) in culture medium. A 100 μL of each dilution was added to the plated cells, this was done in triplicate, and controls (e.g. DMSO and blanks) were included. The plates were incubated for 24 h at 37° C. in a CO2 incubator. The compound titrations were repeated in a separate dilution plate after 24 h. The media plus compound from the assay plates were then aspirated. A 100 μL of media was then added to all wells, followed by 100 μL of each compound dilution. The plates were incubated for a further 48 h at 37° C. in a CO2 incubator (total incubation time 72 h). The number of viable cells was then assessed using Cell Proliferation Reagent WST-1. 10 μL of WST-1 reagent added to each well and incubated for one to four hours at 37° C. in CO2 incubator. The absorbance was measured (450 nm/690 nm).
The activity of compounds of general formula (I) in reducing the number of viable cells was calculated as: % activity=[(S^c−B)/(S^o−B)]×100
S^c denotes signal measured in the presence of test compound, S^o denotes signal detected in the absence of compound, and B denotes background signal, measured in blank wells containing medium only. Analyse data using GraphPad Prism.
Results can be seen in Table 1, wherein IC50 is the concentration giving 50% activity.
The compound `O=c1c(NCCCCCCS(=O)(=O)N(CCN2CCOCC2)OCc2ccccc2)c(Nc2ccncc2)c1=O` [Compound 1077, N-(benzyloxy)-6-(3,4-dioxo-2-(pyridin-4-ylamino)cyclobut-1-enylamino)-N-(2-morpholinoethyl)hexane-1-sulfonamide] showed a half-inhibitory concentration (IC50) of 0.066 nM. That is a picomolar value.
Compound `O=C(CCCCCCNc1c(Nc2ccncc2)c(=O)c1=O)N(OCCN1CCOCC1)C1CCCCC1` [Compound 1007, N-cyclohexyl-7-(3,4-dioxo-2-(pyridin-4-ylamino)cyclobut-1-enylamino)-N-(2-morpholinoethoxy)heptanamide] returned an IC50 of 0.03 nM.
To `O=c1c(NCCCCCCS(=O)(=O)N(Cc2ccccc2)OCCC2CCCCC2)c(Nc2ccncc2)c1=O` [Compound 1010, N-benzyl-N-(2-cyclohexylethoxy)-6-(3,4-dioxo-2-(pyridin-4-ylamino)cyclobut-1-enylamino)hexane-1-sulfonamide] belongs 0.93 nM; to `O=c1c(NCCCCCCS(=O)(=O)N(CCN2CCOCC2)C2CCCCCC2)c(Nc2ccncc2)c1=O` [Compound 1021, N-cycloheptyl-6-(3,4-dioxo-2-(pyridin-4-ylamino)cyclobut-1-enylamino)-N-(2-morpholinoethyl)hexane-1-sulfonamide], 0.25 nM; to `O=c1c(NCCCCCCS(=O)(=O)N(CCN2CCOCC2)c2ccc(Cl)cc2)c(Nc2ccncc2)c1=O` [Compound 1080, N-(4-chlorophenyl)-6-(3,4-dioxo-2-(pyridin-4-ylamino)cyclobut-1-enylamino)-N-(2-morpholinoethyl)hexane-1-sulfonamide], 0.66 nM.
In the case of `CN(OCc1ccccc1)S(=O)(=O)CCCCCCNc1c(Nc2ccncc2)c(=O)c1=O` [Compound 1076, N-(benzyloxy)-6-(3,4-dioxo-2-(pyridin-4-ylamino)cyclobut-1-enylamino)-N-methylhexane-1-sulfonamide] it was 0.25 nM.
Consider `O=c1c(NCCCCCS(=O)(=O)N(OCCN2CCOCC2)C2CCCCC2)c(Nc2ccncc2)c1=O` [Compound 1053, N-Cyclohexyl-5-(3,4-dioxo-2-(pyridin-4-ylamino)cyclobut-1-enylamino)-N-(2-morpholinoethoxy)pentane-1-sulfonamide], for which half-maximal inhibition (IC50) was put at 0.5 nM.
In the case of `O=C(CCCCCCCNc1c(Nc2ccncc2)c(=O)c1=O)N(Cc1ccccc1)OCCN1CCOCC1` [Compound 1018, N-benzyl-8-(3,4-dioxo-2-(pyridin-4-ylamino)cyclobut-1-enylamino)-N-(2-morpholinoethoxy)octanamide] it was 0.26 nM; in that of `CN(C1CCCCCC1)S(=O)(=O)CCCCCCNc1c(Nc2ccncc2)c(=O)c1=O` [Compound 1027, N-cycloheptyl-6-(3,4-dioxo-2-(pyridin-4-ylamino)cyclobut-1-enylamino)-N-methylhexane-1-sulfonamide], 0.08 nM; in that of `O=c1c(NCCCCCCS(=O)(=O)N2CCOCC2)c(Nc2ccncc2)c1=O` [Compound 1031, 3-(6-(morpholinosulfonyl)hexylamino)-4-(pyridin-4-ylamino)cyclobut-3-ene-1,2-dione], 41.3 nM.
`O=c1c(NCCCCCCS(=O)(=O)N(OCCN2CCOCC2)C2CCCCC2)c(Nc2ccncc2)c1=O` [Compound 1051, N-Cyclohexyl-6-(3,4-dioxo-2-(pyridin-4-ylamino)cyclobut-1-enylamino)-N-(2-morpholinoethoxy)hexane-1-sulfonamide oxalate] showed an IC50 of 0.45 nM.
In turn, `O=c1c(NCCCCCCS(=O)(=O)N(CCN2CCOCC2)OCCC2CCCCC2)c(Nc2ccncc2)c1=O` [Compound 1009, N-(2-cyclohexylethoxy)-6-(3,4-dioxo-2-(pyridin-4-ylamino)cyclobut-1-enylamino)-N-(2-morpholinoethyl)hexane-1-sulfonamide] gave an IC50 of 0.43 nM.
As to `COCCOCCOCCN(OCCC1CCCCC1)S(=O)(=O)CCCCCCNc1c(Nc2ccncc2)c(=O)c1=O` [Compound 1008, N-(2-cyclohexylethoxy)-6-(3,4-dioxo-2-(pyridin-4-ylamino)cyclobut-1-enylamino)-N-(2-(2-(2-methoxyethoxy)ethoxy)ethyl)hexane-1-sulfonamide], it took 0.48 nM to reach half-maximal inhibition (IC50).
With `O=c1c(NCCCCCCCS(=O)(=O)N(OCCN2CCOCC2)C2CCCCC2)c(Nc2ccncc2)c1=O` [Compound 1052, N-Cyclohexyl-7-(3,4-dioxo-2-(pyridin-4-ylamino)cyclobut-1-enylamino)-N-(2-morpholinoethoxy)heptane-1-sulfonamide], the IC50 was determined as 0.3 nM.
As for `O=C(CCCCCCNc1c(Nc2cccnc2)c(=O)c1=O)N(OCCN1CCOCC1)C1CCCCC1` [Compound 1033, N-cyclohexyl-7-(3,4-dioxo-2-(pyridin-3-ylamino)cyclobut-1-enylamino)-N-(morpholinoethoxy)heptanamide], the midpoint of inhibition, the IC50, lay at 0.6 nM. Compared with the last compound, the IC50 is about 2-fold higher.
As to `O=c1c(NCCCCCCS(=O)(=O)N(CCCN2CCOCC2)C2CCC2)c(Nc2ccncc2)c1=O` [Compound 1062, N-cyclobutyl-6-(3,4-dioxo-2-(pyridin-4-ylamino)cyclobut-1-enylamino)-N-(3-morpholinopropyl)hexane-1-sulfonamide], the IC50 is 0.42 nM.
As for `O=c1c(NCCCCCCS(=O)(=O)N(OCCN2CCOCC2)C2CCCCCC2)c(Nc2ccncc2)c1=O` [Compound 1060, N-cycloheptyl-6-(3,4-dioxo-2-(pyridin-4-ylamino)cyclobut-1-enylamino)-N-(2-morpholinoethoxy)hexane-1-sulfonamide], the IC50 was 0.69 nM.
On to `O=c1c(NCCCCCCS(=O)(=O)N(CCCN2CCOCC2)C2CCCCC2)c(Nc2ccncc2)c1=O` [Compound 1050, N-Cyclohexyl-6-(3,4-dioxo-2-(pyridin-4-ylamino)cyclobut-1-enylamino)-N-(3-morpholinopropyl)hexane-1-sulfonamide], for which the IC50 came to 1.19 nM.
In the case of `O=c1c(NCCCCCCS(=O)(=O)N2CCCCCC2)c(Nc2ccncc2)c1=O` [Compound 1030, 3-(6-(azepan-1-ylsulfonyl)hexylamino)-4-(pyridin-4-ylamino)cyclobut-3-ene-1,2-dione] it was 0.53 nM.
To `O=C(OCCCCCNc1c(Nc2ccncc2)c(=O)c1=O)N(OCCN1CCOCC1)C1CCCCC1` [Compound 1026, 5-(3,4-dioxo-2-(pyridin-4-ylamino)cyclobut-1-enylamino)pentyl cyclohexyl(2-morpholinoethoxy)carbamate] belongs 0.6 nM; to `CCOP(=O)(CCCCCCNc1c(Nc2ccncc2)c(=O)c1=O)NC1CCCCC1` (centres unmarked) [Compound 1068, Ethyl N-cyclohexyl-P-(6-(3,4-dioxo-2-(pyridin-4-ylamino)cyclobut-1-enylamino)hexyl)phosphonimidate], 0.18 nM; to `O=c1c(NCCCCCS(=O)(=O)N(OCCN2CCOCC2)C2CCCC2)c(Nc2ccncc2)c1=O` [Compound 1078, N-cyclopentyl-6-(3,4-dioxo-2-(pyridin-4-ylamino)cyclobut-1-enylamino)-N-(2-morpholinoethoxy)pentane-1-sulfonamide], 0.42 nM.
In turn, `O=C(NCCCCCNc1c(Nc2ccncc2)c(=O)c1=O)N(OCCN1CCOCC1)C1CCCCC1` [Compound 1039, 1-cyclohexyl-3-(5-(3,4-dioxo-2-(pyridin-4-ylamino)cyclobut-1-enylamino)pentyl)-1-(2-morphinethoxy)urea] displayed an IC50 of 4.49 nM.

As usually defined, the IC50 is the midpoint of a concentration-inhibition curve. Lower therefore signals greater potency.
